Measurements: ChEMBL document CHEMBL1155399, “Novel glitazones: design, synthesis, glucose uptake and structure-activity relationships” (Bioorg Med Chem Lett, 2010)

What was measured:
[1] = Antidiabetic activity in Wistar rat hemidiaphragm assessed as glucose uptake at 2 mg after 45 mins by GOD/POD enzymatic method in presence of insulin; conditions: Diaphragm
[2] = Antidiabetic activity in Wistar rat hemidiaphragm assessed as glucose uptake at 2 mg after 45 mins by GOD/POD enzymatic method in absence of insulin; conditions: Diaphragm

SMILES	Activity [1] [mg/g]	Activity [2] [mg/g]
COc1cc(/C=C2/SC(=O)NC2=O)ccc1OCC(=O)Nc1ccccc1[N+](=O)[O-]	26.2	9.75
COc1ccc(NC(=O)COc2ccc(CC3SC(=S)NC3=O)cc2OC)cc1 (configuration not stated)	28.2	9.5
COc1ccc(NC(=O)COc2ccc(/C=C3/SC(=S)NC3=O)cc2OC)cc1	33.5	9.75
COc1ccc(NC(=O)COc2ccc(CC3SC(=O)NC3=O)cc2OC)cc1 (configuration not stated)	30.2	11.2
COc1cc(/C=C2/SC(=O)NC2=O)ccc1OCC(=O)Nc1ccccc1	28.5	12
COc1cc(/C=C2/SC(=S)NC2=O)ccc1OCC(=O)Nc1ccccn1	30	9.75
COc1cc(/C=C2/SC(=S)NC2=O)ccc1OCC(=O)Nc1ccccc1	24.8	8
COc1cc(/C=C2/SC(=S)NC2=O)ccc1OCC(=O)NCc1ccccc1	26.8	10.2
COc1cc(/C=C2/SC(=O)NC2=O)ccc1OCC(=O)NC1CCCCC1	27.2	9.5
COc1ccc(NC(=O)COc2ccc(/C=C3/SC(=O)NC3=O)cc2OC)cc1	36.2	10.8
CN(CCOc1ccc(CC2SC(=O)NC2=O)cc1)c1ccccn1 (configuration not stated)	35.2	11.2
COc1cc(/C=C2/SC(=O)NC2=O)ccc1OCC(=O)NCc1ccccc1	31.8	10.5
COc1cc(/C=C2/SC(=O)NC2=O)ccc1OCC(=O)Nc1ccccc1C(N)=O	29	10
COc1cc(/C=C2/SC(=S)NC2=O)ccc1OCC(=O)NC1CCCCC1	30	11.8
COc1cc(/C=C2/SC(=O)NC2=O)ccc1OCC(=O)Nc1ccccn1	32	12.2
COc1cc(/C=C2/SC(=S)NC2=O)ccc1OCC(=O)Nc1ccccc1[N+](=O)[O-]	25.5	9
